Where two headings read alike, the source gives them in different places. Peptide text beside a SMILES is read from it. * marks the point of attachment. Heptanoyl = CCCCCCC(=O)*; Octanoyl = CCCCCCCC(=O)*; Hexanoyl = CCCCCC(=O)*; Pentanoyl = CCCCC(=O)*
How the values were obtained:
S. aureus = test: Checkerboard analysis of peptide-antibiotic combinations; assay type: cell-based, Staphylococcus aureus; details: combined with different antibiotics
Protocol: (§1) The broth microdilution method was used to determine minimal inhibitory concentration (MIC) and minimal bactericidal concentration (MBC). Two-fold serial dilutions of the peptides were used, and the final concentrations ranged from 0.19-100 μM. The effect of peptide-antibiotic combinations was investigated by performing a checkerboard analysis. […] The fractional inhibitory concentration (FIC) and fractional bactericidal concentration (FBC) were calculated by the equation (MIC or MBC of peptide in combination/MIC or MBC of peptide […] alone)+(MIC or MBC of antibiotic in combination/MIC or MBC of antibiotic alone). Synergy was defined as FIC/FBC≤0.5, additive when 0.5<FIC/FBC≤1, indifferent when 1<FIC/FBC<2 and antagonistic when FIC/FBC≥2. All experiments were repeated at least three times.

E. coli = test: as above; assay type: cell-based, Escherichia coli; details: combined with different antibiotics
Protocol: as §1

[1] = system: S. aureus (ATCC 29213, MSSA); assay type: cell-based, Staphylococcus aureus; details: for antimicrobial activity against S. aureus (in words): compared with peptide #6 or the parent lipopeptide
Protocol: (§2) S. aureus (ATCC 29213, MSSA, ATCC, Manassas, VA) and E. coli (K-12 MG1655) were streaked on Luria-Bertani (LB) agar plates and incubated at 37° C. overnight. Single colonies were inoculated into 5 ml of LB broth and incubated on a shaker (400 rpm) at 37° C. overnight. The bacterial concentrations were determined by viable count and were adjusted to correlate with approximately 10^9 CFU/ml.
as §1

E. coli (K-12 MG1655) = test: Broth microdilution MIC/MBC; assay type: cell-based, Escherichia coli; details: for antimicrobial activity against E. coli (in words): compared with peptide #6 or the parent lipopeptide
Protocol: as §2, §1

[2] = system: HaCaT keratinocytes infected with S. aureus; test: LDH cytotoxicity and cytokine secretion of S. aureus-infected HaCaT keratinocytes; assay type: cell-based, human; details: 24 h, vs positive control
Protocol: After 24 hours of exposure to Staphylococcus aureus (MOI=0.1), and three administrations of L-6-C5-N (2.5, 5, 10, 20 and 40 μM) at 1, 5 and 9 hours post infection. (A) Cytotoxicity, LDH levels normalized against negative control. (B) Interleukin-6. (C) Tumor Necrosis Factor-α. (D) CXC motif ligand 8 levels. (−) indicates negative control (uninfected/unstimulated cells), (+) indicates positive control (S. aureus-infected cells). Statistical analysis was done by ANOVA with Tukey's post hoc test. P-values are indicated by *=[…], ***=0.001.
It was evaluated whether the peptide SEQ ID NO:3 having L-amino acids and an acetylation with five carbon atoms at the N-terminal portion (L-6-C5-N) could effectively reduce an inflammatory response to a bacterial infection to HaCaT keratinocytes. After 24 hours of exposure to Staphylococcus aureus (MOI=0.1), and three administrations of L-6-C5-N SEQ ID NO:3 in different concentrations (2.5, 5, 10, 20 and 40 μM) at 1, 5 and 9 hours post infection, a LDH cytotoxicity assay was performed and IL-6, TNF-α and CXCL-8 concentrations were measured. The symbol (−) indicates negative control (uninfected/unstimulated cells), (+) indicates positive control (S. aureus-infected cells).

human erythrocytes = assay type: cell-based; details: red cells of human, 1 h, 100 μM
Protocol: FIG. 4. Hemolytic activity of SEQ ID NO 1 and SEQ ID NO 3. The hemolytic activity was determined on human erythrocytes (15% suspended in PBS) after exposure to A) SEQ ID NO: 3 with increasing length of fatty acid chains and full length PLNC8 β, B) L-enantiomers of SEQ ID NO: 3 with a fatty acid chain length of 5, 6, and 7 carbon (L-6-C5-N; L-6-C6-N; L-6-C7-N), and L-enantiomers of SEQ ID NO 1 with a fatty acid chain length of 5, 6, and 7 carbon (L-6-C5-N-Leu; L-6-C6-N-Leu; L-6-C7-N-Leu), C) D-enantiomers of SEQ ID NO: 3 with a fatty acid chain length of 5, 6, and 7 carbon (D-6-C5-N; D-6-C6-N; D-6-C7-N), and D-enantiomers of SEQ ID NO: 1 with a fatty acid chain length of 5, 6, and 7 carbon (D-6-C5-N-Leu; D-6-C6-N-Leu; D-6-C7-N-Leu). Erythrocytes were exposed to the peptides using the indicated concentrations for 1 h. […]
The hemolytic activity of the peptides was investigated by collecting blood from healthy volunteers in heparinized vacutainers. […] The plates were incubated for 1 h at 37° C. followed by centrifugation for 5 min at 900×g and absorbance measurement of the supernatants at 540 nm. Hemolytic activity (%) was calculated by subtracting the negative control from all values and normalization against the positive control (0.5% Triton X-100), that was set to 100%. […]

| Molecule | MBC E. coli (E. coli (K-12 MG1655); broth microdilution) | MIC E. coli (E. coli (K-12 MG1655); broth microdilution) | MBC S. aureus ([1]; ATCC 29213, 20 h) | MIC S. aureus ([1]; ATCC 29213, 20 h) | other results |
| --- | --- | --- | --- | --- | --- |
| 6-C2-N: peptide #6 (SEQ ID NO: 3) acetylated with two carbon atoms at the N-terminal (Ac-LGIKILWSAYKHRKTI-NH2) [Peptide 6-C2-N] |  |  |  |  | interaction with antibiotics (FIC/FBC) against S. aureus (S. aureus): additive or synergistic; interaction with antibiotics (FIC/FBC) against E. coli (E. coli): additive or synergistic |
| 6-C5-N: SEQ ID NO:3 having L-amino acids and an acetylation with five carbon atoms at the N-terminal portion (Pentanoyl-LGIKILWSAYKHRKTI-NH2) [Peptide 6-C5-N] |  |  |  |  | antimicrobial activity against S. aureus (in words) [1]: maximum; antimicrobial activity against E. coli (in words) (E. coli (K-12 MG1655)): maximum; interaction with antibiotics (FIC/FBC) against S. aureus (S. aureus): additive or synergistic; interaction with antibiotics (FIC/FBC) against E. coli (E. coli): additive or synergistic; IL-6 secretion, infected HaCaT ([2]; MOI=0.1, 2.5-40 μM at 1, 5 and 9 h post infection): significantly reduced; cell lysis (LDH) of S. aureus-infected HaCaT keratinocytes ([2]; MOI=0.1, 2.5-40 μM given at 1, 5 and 9 h post infection): significantly reduced |
| 6-C6-N: L-enantiomer of SEQ ID NO: 3 with a fatty acid chain length of 6 carbon (Hexanoyl-LGIKILWSAYKHRKTI-NH2; also: C6 fatty acid chain, site not given here) [Peptide 6-C6-N] |  |  |  |  | antimicrobial activity against S. aureus (in words) [1]: maximum; antimicrobial activity against E. coli (in words) (E. coli (K-12 MG1655)): maximum |
| CCCCCCC(=O)N[C@@H](CC(C)C)C(=O)NCC(=O)N[C@H](C(=O)N[C@@H](CCCCN)C(=O)N[C@H](C(=O)N[C@@H](CC(C)C)C(=O)N[C@@H](Cc1c[nH]c2ccccc12)C(=O)N[C@@H](CO)C(=O)N[C@@H](C)C(=O)N[C@@H](Cc1ccc(O)cc1)C(=O)N[C@@H](CCCCN)C(=O)N[C@@H](Cc1c[nH]cn1)C(=O)N[C@@H](CCCNC(=N)N)C(=O)N[C@@H](CCCCN)C(=O)N[C@H](C(=O)N[C@H](C(N)=O)[C@@H](C)CC)[C@@H](C)O)[C@@H](C)CC)[C@@H](C)CC [Peptide 6-C7-N] (Heptanoyl-LGIKILWSAYKHRKTI-NH2) |  |  |  |  | hemolytic activity (human erythrocytes): around 10% |
| CCCCCCCC(=O)N[C@@H](CC(C)C)C(=O)NCC(=O)N[C@H](C(=O)N[C@@H](CCCCN)C(=O)N[C@H](C(=O)N[C@@H](CC(C)C)C(=O)N[C@@H](Cc1c[nH]c2ccccc12)C(=O)N[C@@H](CO)C(=O)N[C@@H](C)C(=O)N[C@@H](Cc1ccc(O)cc1)C(=O)N[C@@H](CCCCN)C(=O)N[C@@H](Cc1c[nH]cn1)C(=O)N[C@@H](CCCNC(=N)N)C(=O)N[C@@H](CCCCN)C(=O)N[C@H](C(=O)N[C@H](C(N)=O)[C@@H](C)CC)[C@@H](C)O)[C@@H](C)CC)[C@@H](C)CC [Peptide 6-C8-N] (Octanoyl-LGIKILWSAYKHRKTI-NH2) | 12.5 µM | 12.5 µM |  |  | antimicrobial activity against S. aureus (in words) [1]: did not affect the antimicrobial activity |
| Ac-ILWSAYKHR-NH2 [Peptide S2] | >100 µM | >100 µM |  |  |  |
| Ac-KILWSAYKHR-NH2 [Peptide S1] | >100 µM | >100 µM |  |  |  |
| Ac-LGIKILRSARKFGKVIEKSF-NH2 [Peptide 15] | >100 µM | >100 µM | >100 µM | >100 µM |  |
| Ac-LGIKILWSARKFGKVIEKSF-NH2 [Peptide 16] | >100 µM | >100 µM | >100 µM | >100 µM |  |
| Ac-LGIKILWSAYKHRKTI-NH2 [Peptide 6] | 50 µM | 50 µM |  |  | MBC S. aureus ([1]; broth microdilution): 100 µM; MIC S. aureus ([1]; broth microdilution): 100 µM; antimicrobial activity against E. coli (in words) (E. coli (K-12 MG1655)): comparable to the activity of LL-37 |
| Ac-LGQKILRSARKFGKDIEKSF-NH2 [Peptide 14] | >100 µM | >100 µM | >100 µM | >100 µM |  |
| Ac-LGQKILRSARKFGKTIEKSF-NH2 [Peptide 13] | >100 µM | >100 µM | >100 µM | >100 µM |  |
| Ac-LLGIKILWKARKFGKVIEKSF-NH2 [Peptide 18] | >100 µM | 100 µM | >100 µM | >100 µM |  |
| Ac-LLGIKILWSARKFGKVIEKSF-NH2 [Peptide 17] | >100 µM | >100 µM | >100 µM | >100 µM |  |
| Ac-LWSAYKHR-NH2 [Peptide S3] | >100 µM | >100 µM |  |  |  |
| Ac-SVPTSVYTLGIKILWSAYKHRKTIEKSFNKGFYH-NH2 (N-terminus and C-terminus assumed) [PLNC8 β, reference compound] |  |  |  |  | MBC S. aureus ([1]; ATCC 29213): >100 µM; MIC S. aureus ([1]; ATCC 29213): >100 µM; MBC E. coli (E. coli (K-12 MG1655); K-12): >100 µM; MIC E. coli (E. coli (K-12 MG1655); K-12): >100 µM; antimicrobial activity against E. coli (in words) (E. coli (K-12 MG1655)): no activity |
| Ac-TLGIKILWSAYKHRKT-NH2 [Peptide 5] | >100 µM | >100 µM | >100 µM | >100 µM |  |
| Ac-WSAYK-NH2 [Peptide S6, WSAYK] | >100 µM | >100 µM |  |  |  |
| Ac-WSAYKH-NH2 [Peptide S5, WSAYKH] | >100 µM | >100 µM |  |  |  |
| Ac-WSAYKHR-NH2 [Peptide S4, WSAYKHR] | >100 µM | >100 µM |  |  |  |
| Ac-YTLGIKILWSAYKHRK-NH2 [Peptide 4] | >100 µM | >100 µM | >100 µM | >100 µM |  |

Source: patent US20250320261A1, “ANTIBACTERIAL PEPTIDE” (priority 2021, published 2025)
